Measurements: patent publication US9878992B2, “GDF-8 inhibitors” (Rigel Pharmaceuticals, Inc., priority 2012, dated 2018)

target: MAP4K4 (Homo sapiens, UniProt O95819); assay: MAP4K4 inhibition; format: biochemical; conditions: not given
Description: Such compounds are particularly useful in muscle disorders, such as cachexia and sarcopenia as MAP4K4 acts as a suppressor of skeletal muscle differentiation. See, Wang M, Amano S U, Flach R J, Chawla A, Aouadi M, Czech P. Molecular and cellular biology. 2013 February; 33(4): 678-87.

Sequence of MAP4K4 (O95819 whole entry, species assumed): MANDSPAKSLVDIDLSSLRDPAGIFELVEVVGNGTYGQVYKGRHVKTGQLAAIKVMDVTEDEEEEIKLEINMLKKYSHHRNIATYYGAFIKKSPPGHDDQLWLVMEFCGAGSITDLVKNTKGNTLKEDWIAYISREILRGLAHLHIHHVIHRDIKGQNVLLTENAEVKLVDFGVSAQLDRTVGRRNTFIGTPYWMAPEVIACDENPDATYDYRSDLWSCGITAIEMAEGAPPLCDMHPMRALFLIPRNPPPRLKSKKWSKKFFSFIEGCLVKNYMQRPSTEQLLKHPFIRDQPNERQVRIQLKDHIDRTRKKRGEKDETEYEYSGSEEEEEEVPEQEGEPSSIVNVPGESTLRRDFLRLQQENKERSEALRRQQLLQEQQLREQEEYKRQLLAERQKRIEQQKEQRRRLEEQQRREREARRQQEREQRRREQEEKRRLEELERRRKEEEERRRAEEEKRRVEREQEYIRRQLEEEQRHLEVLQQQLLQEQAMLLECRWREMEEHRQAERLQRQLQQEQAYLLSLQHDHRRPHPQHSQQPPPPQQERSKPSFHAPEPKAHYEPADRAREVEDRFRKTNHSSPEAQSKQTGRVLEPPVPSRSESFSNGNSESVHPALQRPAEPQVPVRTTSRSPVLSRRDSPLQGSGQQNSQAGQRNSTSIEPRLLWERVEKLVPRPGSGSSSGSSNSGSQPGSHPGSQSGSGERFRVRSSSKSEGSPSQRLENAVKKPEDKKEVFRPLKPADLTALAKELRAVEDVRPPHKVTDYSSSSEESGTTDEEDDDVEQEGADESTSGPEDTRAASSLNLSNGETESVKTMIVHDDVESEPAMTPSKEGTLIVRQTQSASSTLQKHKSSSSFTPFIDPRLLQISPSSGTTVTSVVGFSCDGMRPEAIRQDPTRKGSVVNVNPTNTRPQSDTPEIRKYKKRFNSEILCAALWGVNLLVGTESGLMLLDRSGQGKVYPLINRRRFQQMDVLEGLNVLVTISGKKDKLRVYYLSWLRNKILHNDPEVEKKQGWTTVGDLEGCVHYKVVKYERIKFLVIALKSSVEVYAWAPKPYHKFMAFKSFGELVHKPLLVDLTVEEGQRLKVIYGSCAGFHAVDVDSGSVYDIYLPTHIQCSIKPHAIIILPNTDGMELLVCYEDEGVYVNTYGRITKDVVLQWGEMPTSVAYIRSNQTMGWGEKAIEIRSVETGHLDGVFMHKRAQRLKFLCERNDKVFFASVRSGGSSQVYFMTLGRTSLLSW

| SMILES | IC50 [nM] |
| --- | --- |
| Cc1cc(-c2ncccc2-c2ccc3[nH]ncc3c2)ccc1F [Compound 63, 5-(2-(4-Fluoro-3-methylphenyl)pyridin-3-yl)-1H-indazole] | < 500 |
| Nc1ncnc2ccc(-c3cccnc3-c3ccc(F)c(Cl)c3)cc12 [Compound 448, 6-(2-(3-Chloro-4-fluorophenyl)pyridin-3-yl)quinazolin-4-amine] | < 500 |
| Nc1ncnc2ccc(-c3cccnc3-c3cccc(O)c3)cc12 [Compound 456, 3-(3-(4-Aminoquinazolin-6-yl)pyridin-2-yl)phenol] | < 500 |
| Nc1ncnc2ccc(-c3cccnc3-c3cc(O)cc(F)c3)cc12 [Compound 494, 3-(3-(4-Aminoquinazolin-6-yl)pyridin-2-yl)-5-fluorophenol] | < 500 |
| Nc1ncnc2ccc(-c3cccnc3-c3cc(F)cc(Cl)c3)cc12 [Compound 460, 6-(2-(3-Chloro-5-fluorophenyl)pyridin-3-yl)quinazolin-4-amine] | < 500 |
| Nc1ncnc2ccc(-c3cccnc3-c3cc(Cl)ccc3F)cc12 [Compound 818, 6-(2-(5-Chloro-2-fluorophenyl)pyridin-3-yl)quinazolin-4-amine] | < 500 |
| O=c1nc[nH]c2ccc(-c3cccnc3-c3cccc(Cl)c3)cc12 [Compound 389, 6-(2-(3-Chlorophenyl)pyridin-3-yl)quinazolin-4(1H)-one] | < 500 |

system: GDF8 signaling; assay: AlphaScreen SureFire SMAD3 (p-Ser423/425) assay, GDF8-stimulated cells; format: cell-based; conditions: Mus musculus, MPC-11, inhibition of GDF8 signaling; pSMAD readout; MPC11; read-out: GDF pSMAD (MPC11)
Description: [The procedure below names another cell line; the source lists this cell line under the same test.] The p-SMAD-3 (Ser423/425) SureFire® assay has been designed to measure the phosphorylation of endogenous cellular p-SMAD-3 (Ser423/425) in cell lysates and is a system for the screening of both modulators of receptor activation (e.g. agonists and antagonists) as well as agents acting intracellularly, such as small molecule inhibitors of upstream events. The assay will measure p-SMAD-3 (Ser423/425) activation by either cloned or endogenous receptors, and can be applied to primary cells.
P-SMAD-3 (Ser423/425) SureFire® Assay Protocols
Step A: Preparation of Buffers
1× Lysis buffer: 1 ml of 5× Lysis buffer was diluted with 4 ml of sterile water. After dilution, excess 1× Lysis buffer can be frozen and thawed up to 5 times without loss in activity.
Activation buffer: The buffer was warmed slowly to 37° C. and gently mixed to re-suspend. Activation buffer can be stored at room temperature with no loss in activity.
Reaction buffer: The buffer was kept at 4° C. while in use.
AlphaScreen® Protein A IgG Kit: The kit was stored at 4° C. in the dark.
Reaction buffer+Activation buffer+AlphaScreen® Acceptor beads: Reaction buffer (40 parts), Activation Buffer (10 parts) and Acceptor beads (1 part) were mixed and the mixture was stored at room temperature and used the same day. Mixture was added to 384-well plates; excess mixture was discarded.
Dilution buffer+AlphaScreen® Donor beads: Dilution buffer (20 parts) and Donor beads (1 part) were mixed and the mixture was stored at room temperature and used the same day. Excess mixture was discarded.
Assay control samples: After reconstitution in 250 μl of water, lysates were at −20° C. in single use aliquots.
Step B: Preparation of Samples and Cells
96-well Assay Protocol for 293FT and RMS13 adherent cells can be carried out manually or in high throughput with liquid handling robots.
The cells (80 μL, of cells for 96 well plates) were plated in collagen coated tissue culture plates in RPMI or FreeStyle medium (Invitrogen) and incubated overnight. For manual analysis, 6 plates for GDF8, 6 plates for TGFβ, and optionally 6 plates for Alk5ca (ALK5 constitutively active) were used.
The compound dilution plates were prepared as follows: 12 μL of DMSO was transferred into first column of 96-well plate, and 16 μL of DMSO was transferred into columns 2-12 of the 96-well plate. 12 μL of compound solution was transferred into first column of the DMSO-containing 96-well plate. Three-fold dilution was performed up to column 10 of the DMSO-containing 96-well plate.
Step C: Treatment and Analysis
The plate containing cells were treated with compounds for about 10 minutes, and then ligand was added. GDF8 or TGFb was added to plates to stimulate. 293FL cells were stimulated for 90 minutes at 37° C.; and RMS13 cells were stimulated for 60 minutes at 37° C. The medium was then removed from the cells, and 1× Lysis Buffer (about 25 μL) was added and the plate was gently agitated on plate shaker for 5-10 minutes.
The lysate (5 μL) was then placed into 384-well shallow plates avoiding the generation of bubbles. To this, the Reaction Buffer+Activation Buffer+AlphaScreen® Acceptor beads mixture (5 μL) was added. The plate was sealed with adhesive cover and shielded from light (e.g., with metal foil), and agitated gently on plate shaker for 2 hours at room temperature.
Dilution buffer+AlphaScreen® Donor beads (2 μL) was then added, and the plate was intubated on the plate shaker for an additional 1½ hours. After completion, the plate was read on Synergy-4 or Enspire plate reader, using AlphaScreen® pSMAD3® settings.

| SMILES | IC50 [nM] |
| --- | --- |
| Cc1cc(-c2ncccc2-c2ccc3ncc(C(=O)N[C@@H]4C[C@@H]5CCCN5C(C)(C)C4)n3c2)ccc1F [Compound 744, N-((7R,8aS)-5,5-Dimethyloctahydroindolizin-7-yl)-6-(2-(4-fluoro-3-methylphenyl)pyridin-3-yl)imidazo[1,2-a]pyridine-3-carboxamide] | 968 |
| Cc1cc(-c2ncccc2-c2ccc3ncccc3c2)ccc1F [Compound 207, 6-(2-(4-Fluoro-3-methylphenyl)pyridin-3-yl)quinoline] | 2040 |
| Cc1cc(-c2ncc(CO)cc2-c2ccc3nccnc3c2)ccc1F [Compound 222, (6-(4-Fluoro-3-methylphenyl)-5-(quinoxalin-6-yl)pyridin-3-yl)methanol] | 5620 |
| COc1cc(-c2cnc3ccc(-c4cccnc4-c4ccc(F)c(C)c4)cn23)cc(OC)c1OC [Compound 577, 6-(2-(4-Fluoro-3-methylphenyl)pyridin-3-yl)-3-(3,4,5-trimethoxyphenyl)imidazo[1,2-a]pyridine] | 2260 |
| Fc1ccc(Cl)cc1-c1ncccc1-c1ccc2nccn2n1 [Compound 937, 6-(2-(5-Chloro-2-fluorophenyl)pyridin-3-yl)imidazo[1,2-b]pyridazine] | 207 |
| Cc1cc(-c2ncc(F)cc2-c2ccc3[nH]ncc3c2)ccc1F [Compound 10, 5-(5-Fluoro-2-(4-fluoro-3-methylphenyl)pyridin-3-yl)-1H-indazole] | 535 |
| Cc1cccc(-c2ncccc2-c2ccc3ncccc3c2)c1 [Compound 208, 6-(2-m-Tolylpyridin-3-yl)quinoline] | 1150 |
| Cc1cccc(-c2ncccc2-c2ccc3ncn(CCCON)c3c2)c1 [Compound 38] | 3230 |
| Cc1cc(-c2ncccc2-c2ccc3nn(COP(=O)(O)O)cc3c2)ccc1F [Compound 172, [5-(2-(4-Fluoro-3methylphenyl)pyridin-3-yl)-2H-indazol-2-yl]methyl dihydrogen phosphate] | 187 |
| Cc1cc(-c2ncccc2-c2ccc3ncnc(OCCN4CCOCC4)c3c2)ccc1F [Compound 425, 4-(2-((6-(2-(4-Fluoro-3-methylphenyl)pyridin-3-yl)quinazolin-4-yl)oxy)ethyl)morpholine] | 537 |
| Cc1cc(-c2ncccc2-c2ccn3ncc(C(=O)N[C@@H]4C[C@@H]5CCCN5C(C)(C)C4)c3c2)ccc1F [Compound 745, N-((7R,8aS)-5,5-Dimethyloctahydroindolizin-7-yl)-5-(2-(4-difluoro-3-methylphenyl)pyridin-3-yl)pyrazolo[1,5-a]pyridine-3-carboxamide] | 366 |
| COc1ncnc2ccc(-c3cccnc3-c3cccc(O)c3)cc12 [Compound 378, 3-(3-(4-Methoxyquinazolin-6-yl)pyridin-2-yl)phenol] | 558 |
| [2H]C([2H])([2H])c1cccc(-c2ncccc2-c2ccc3ncc(C(C)=O)n3c2)c1 [Compound 606, 1-(6-(2-(3-(Methyl-d3)phenyl)pyridin-3-yl)imidazo[1,2-a]pyridin-3-yl)ethan-1-one] | 1440 |
| Cc1cc(-c2ncccc2-c2ccc3ncnc(N4CCOCC4)c3c2)ccc1F [Compound 385, 4-(6-(2-(4-Fluoro-3-methylphenyl)pyridin-3-yl)quinazolin-4-yl)morpholine] | 2560 |
